Data from ChEMBL document CHEMBL4316629, “Discovery of 1,3-diphenyl-1H-pyrazole derivatives containing rhodanine-3-alkanoic acid groups as potential PTP1B inhibitors” (Bioorg Med Chem Lett, 2019).

Biological target: T1, Tyrosine-protein phosphatase non-receptor type 1 (Homo sapiens, UniProt P18031)
T1 sequence (P18031 whole entry): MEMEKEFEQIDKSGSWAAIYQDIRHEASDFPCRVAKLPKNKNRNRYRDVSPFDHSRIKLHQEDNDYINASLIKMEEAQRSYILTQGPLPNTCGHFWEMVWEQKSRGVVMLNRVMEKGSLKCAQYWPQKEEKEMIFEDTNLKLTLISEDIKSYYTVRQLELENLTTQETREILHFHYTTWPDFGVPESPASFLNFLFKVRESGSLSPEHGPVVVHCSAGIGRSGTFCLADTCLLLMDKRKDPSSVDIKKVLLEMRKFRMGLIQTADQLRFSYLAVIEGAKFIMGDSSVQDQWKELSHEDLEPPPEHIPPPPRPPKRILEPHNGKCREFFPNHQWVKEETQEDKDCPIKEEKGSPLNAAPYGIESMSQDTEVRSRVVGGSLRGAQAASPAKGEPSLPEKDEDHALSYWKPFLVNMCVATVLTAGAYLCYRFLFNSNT
Experiment: Inhibition of PTP1B (unknown origin) using pNPP as substrate

Row | Structure (SMILES) | IC50 [µM]
1 | Cc1ccc(-c2nn(-c3ccccc3)cc2/C=C2\SC(=S)N(CC(=O)O)C2=O)cc1 | 14.7
2 | O=C(O)[C@@H](Cc1ccccc1)N1C(=O)/C(=C/c2cn(-c3ccccc3)nc2-c2ccccc2)SC1=S | 6.37
3 | COc1ccc(-c2nn(-c3ccccc3)cc2/C=C2\SC(=S)N([C@H](Cc3ccccc3)C(=O)O)C2=O)cc1 | 7.09
4 | O=C(O)[C@@H](Cc1ccccc1)N1C(=O)/C(=C/c2cn(-c3ccccc3)nc2-c2ccccc2Cl)SC1=S | 4.89
5 | COc1cccc(-c2nn(-c3ccccc3)cc2/C=C2\SC(=S)N([C@H](Cc3ccccc3)C(=O)O)C2=O)c1 | 4.95
6 | COc1ccccc1-c1nn(-c2ccccc2)cc1/C=C1\SC(=S)N([C@H](Cc2ccccc2)C(=O)O)C1=O | 6.3
7 | O=C(O)CN1C(=O)/C(=C/c2cn(-c3ccccc3)nc2-c2ccc([N+](=O)[O-])cc2)SC1=S | 9.24
8 | O=C(O)CN1C(=O)/C(=C/c2cn(-c3ccccc3)nc2-c2cccc(Br)c2)SC1=S | 12.1
9 | O=C(O)CN1C(=O)/C(=C/c2cn(-c3ccccc3)nc2-c2ccc(Br)cc2)SC1=S | 14.2
10 | COc1ccccc1-c1nn(-c2ccccc2)cc1/C=C1\SC(=S)N(CC(=O)O)C1=O | 24.6
11 | O=C(O)CN1C(=O)/C(=C/c2cn(-c3ccccc3)nc2-c2cccc(Cl)c2)SC1=S | 13.2
12 | O=C(O)[C@@H](Cc1ccccc1)N1C(=O)/C(=C/c2cn(-c3ccccc3)nc2-c2ccc([N+](=O)[O-])cc2)SC1=S | 3.57
13 | Cc1ccc(-c2nn(-c3ccccc3)cc2/C=C2\SC(=S)N([C@H](Cc3ccccc3)C(=O)O)C2=O)cc1 | 2.05
14 | O=C(O)[C@@H](Cc1ccccc1)N1C(=O)/C(=C/c2cn(-c3ccccc3)nc2-c2cccc(Br)c2)SC1=S | 2.76
